Results reported in patent US10479795B2 (Incyte Corporation, priority 2016, dated 2019).
Where a name gives a salt, the structure may show the parent alone. Read-outs that look alike come from different tables or passages of the source.

Experiments:
[1] = target: PI3Kγ (p110γ) Recombinant Human Protein (Homo sapiens (Human), UniProt P48736); experiment: PI3K-γ Scintillation Proximity Assay; type: biochemical; settings: read-out: PI3Kγ IC50
In short: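 Radiometric SPA readout: […] bound to WGA beads after overnight shaking, IC50 derived from % activity of DMSO control. Reaction used human p110γ, 2 μM ATP, 20 μM PIP2, pH 6.7 MOPS buffer with MgCl2, DTT, CHAPS, 2% DMSO, room temperature.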

[2] = tested on: Phosphorylated Ribosomal Protein S6 (RPS6); experiment: THP-1 RPS6 ELISA Assay; type: cell-based, Human; settings: THP-1 cells, read-out: PI3Kγ_THP1_RPS6_ELISA IC50
In short: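 IC50 values come from a curve of percent inhibition against log compound concentration, using phospho-RPS6 ELISA (450 nm) on THP-1 lysates. Cells were serum-starved overnight, exposed to compound for 2 h at 37 °C, then challenged 15 min with 10 nM MCP-1.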

[3] = target: PI3Kδ (p110δ/p85α) Recombinant Human Protein (Homo sapiens (Human), UniProt O00329); experiment: PI3Kδ Scintillation Proximity Assay; type: biochemical
In short: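 Assay conditions: 2 μM ATP (radiolabelled), 20 μM PIP2, 3.4 nM PI3Kδ, 20 mM MOPS pH 6.7 with 10 mM MgCl2, 5 mM DTT, 0.03% CHAPS, 2 h at room temperature. Signal from bead-captured 33P product; IC50 versus solvent control.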

PI3Kγ (p110γ) Recombinant Human Protein, sequence (P48736 whole entry): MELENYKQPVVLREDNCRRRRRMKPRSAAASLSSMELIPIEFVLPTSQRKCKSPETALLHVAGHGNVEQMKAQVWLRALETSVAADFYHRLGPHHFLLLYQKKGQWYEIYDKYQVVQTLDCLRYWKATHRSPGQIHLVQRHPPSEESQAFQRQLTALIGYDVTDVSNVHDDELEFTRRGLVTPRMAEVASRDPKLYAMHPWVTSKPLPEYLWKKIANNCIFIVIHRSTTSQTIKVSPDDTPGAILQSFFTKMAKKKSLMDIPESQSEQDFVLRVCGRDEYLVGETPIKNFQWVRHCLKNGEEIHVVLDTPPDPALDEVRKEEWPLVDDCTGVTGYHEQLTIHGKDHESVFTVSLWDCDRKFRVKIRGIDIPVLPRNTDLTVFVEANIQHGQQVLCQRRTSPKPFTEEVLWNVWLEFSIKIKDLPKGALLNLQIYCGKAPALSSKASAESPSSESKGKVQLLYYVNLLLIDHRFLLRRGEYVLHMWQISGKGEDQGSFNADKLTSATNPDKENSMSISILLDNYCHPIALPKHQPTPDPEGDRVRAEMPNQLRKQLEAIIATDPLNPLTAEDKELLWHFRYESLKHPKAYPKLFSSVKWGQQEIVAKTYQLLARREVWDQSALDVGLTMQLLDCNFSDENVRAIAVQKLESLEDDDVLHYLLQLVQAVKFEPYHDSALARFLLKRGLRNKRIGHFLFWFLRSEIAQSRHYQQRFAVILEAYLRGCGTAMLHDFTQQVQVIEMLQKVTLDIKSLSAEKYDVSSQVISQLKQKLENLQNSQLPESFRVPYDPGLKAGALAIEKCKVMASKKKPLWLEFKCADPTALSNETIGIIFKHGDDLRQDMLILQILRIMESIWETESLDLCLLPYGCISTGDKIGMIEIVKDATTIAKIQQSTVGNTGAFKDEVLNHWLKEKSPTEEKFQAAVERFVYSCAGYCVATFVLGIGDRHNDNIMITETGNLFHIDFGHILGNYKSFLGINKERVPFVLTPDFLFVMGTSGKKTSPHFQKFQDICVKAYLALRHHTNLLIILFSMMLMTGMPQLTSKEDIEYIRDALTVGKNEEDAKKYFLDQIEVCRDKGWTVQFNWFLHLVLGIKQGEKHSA
PI3Kδ (p110δ/p85α) Recombinant Human Protein, sequence (O00329 whole entry): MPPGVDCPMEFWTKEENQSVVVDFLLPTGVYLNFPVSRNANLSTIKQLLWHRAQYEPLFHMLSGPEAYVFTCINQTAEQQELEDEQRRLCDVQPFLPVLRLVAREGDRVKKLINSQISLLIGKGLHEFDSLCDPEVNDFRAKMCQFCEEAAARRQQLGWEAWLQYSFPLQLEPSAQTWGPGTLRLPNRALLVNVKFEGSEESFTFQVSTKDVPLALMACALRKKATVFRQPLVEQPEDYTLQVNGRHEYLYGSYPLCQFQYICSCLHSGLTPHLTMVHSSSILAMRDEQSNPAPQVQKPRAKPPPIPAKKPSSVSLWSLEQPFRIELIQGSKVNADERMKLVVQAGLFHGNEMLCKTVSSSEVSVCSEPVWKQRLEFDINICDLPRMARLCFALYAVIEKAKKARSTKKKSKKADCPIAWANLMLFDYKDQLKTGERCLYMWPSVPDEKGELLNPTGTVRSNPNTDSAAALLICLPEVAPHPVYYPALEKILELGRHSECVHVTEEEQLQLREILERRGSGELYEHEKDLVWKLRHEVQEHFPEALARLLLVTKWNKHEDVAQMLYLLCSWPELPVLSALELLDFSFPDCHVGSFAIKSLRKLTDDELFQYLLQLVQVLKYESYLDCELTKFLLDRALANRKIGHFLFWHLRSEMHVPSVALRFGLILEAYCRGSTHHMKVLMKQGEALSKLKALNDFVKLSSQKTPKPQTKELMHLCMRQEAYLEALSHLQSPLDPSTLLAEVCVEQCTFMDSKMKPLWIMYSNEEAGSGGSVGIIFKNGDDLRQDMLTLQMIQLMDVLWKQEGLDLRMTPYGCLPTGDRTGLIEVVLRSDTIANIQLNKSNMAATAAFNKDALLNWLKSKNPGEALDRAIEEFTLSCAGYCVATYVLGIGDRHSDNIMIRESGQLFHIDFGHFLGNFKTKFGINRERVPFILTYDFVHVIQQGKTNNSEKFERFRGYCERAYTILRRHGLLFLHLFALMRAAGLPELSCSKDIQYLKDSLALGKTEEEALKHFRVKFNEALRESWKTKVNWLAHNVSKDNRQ
PI3Kδ (p110δ/p85α) Recombinant Human Protein, sequence (P27986 whole entry partner): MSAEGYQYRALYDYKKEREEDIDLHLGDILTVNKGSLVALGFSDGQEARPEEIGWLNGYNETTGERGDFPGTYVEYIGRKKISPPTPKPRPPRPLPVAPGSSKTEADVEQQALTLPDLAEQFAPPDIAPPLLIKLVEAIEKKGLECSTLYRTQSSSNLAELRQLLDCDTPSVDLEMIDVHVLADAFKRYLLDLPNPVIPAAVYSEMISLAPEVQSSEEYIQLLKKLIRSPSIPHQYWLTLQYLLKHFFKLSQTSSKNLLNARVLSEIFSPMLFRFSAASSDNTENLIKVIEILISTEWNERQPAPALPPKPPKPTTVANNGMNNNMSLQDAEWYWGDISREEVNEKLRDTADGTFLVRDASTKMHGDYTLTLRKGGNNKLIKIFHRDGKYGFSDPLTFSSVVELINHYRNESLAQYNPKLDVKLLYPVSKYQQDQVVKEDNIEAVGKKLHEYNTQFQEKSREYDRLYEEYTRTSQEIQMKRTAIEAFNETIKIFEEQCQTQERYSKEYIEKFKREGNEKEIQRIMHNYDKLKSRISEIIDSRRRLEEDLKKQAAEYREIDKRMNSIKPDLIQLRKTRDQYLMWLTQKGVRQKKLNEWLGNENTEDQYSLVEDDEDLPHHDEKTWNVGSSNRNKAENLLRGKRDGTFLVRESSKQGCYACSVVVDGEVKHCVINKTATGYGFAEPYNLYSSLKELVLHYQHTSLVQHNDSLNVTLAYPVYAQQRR

Row | SMILES | IC50 [1] [nM] | IC50 [2] [nM] | IC50 [3] [nM] | IC50 ([2]; Homo sapiens) [nM]
1 | Cc1nc(N)c2ncc(-c3cc(S(=O)(=O)NCC(O)C(F)(F)F)ccc3C)n2n1 (single isomer, unassigned) [Example 266, 3-(4-Amino-2-methylimidazo[1,2-f][1,2,4]triazin-7-yl)-4-methyl-N-(3,3,3-trifluoro-2-hydroxypropyl)benzenesulfonamide (single enantiomer isolated)] | < 100 | 100 to 500 | 100 to 500 | 
2 | [2H]C([2H])([2H])c1ccc(S(=O)(=O)NC23CC(CC#N)(C2)C3)cc1-c1cnc2c(N)ncnn12 [Example 371, trifluoroacetate salt] | < 100 |  | 100 to 500 | 100 to 500
3 | C[C@]1(O)CC[C@H](NS(=O)(=O)c2cc(-c3cnc4c(N)nc(-c5ccncc5F)cn34)ccc2F)CC1 [Example 422, 5-(8-amino-6-(3-fluoropyridin-4-yl)imidazo[1,2-a]pyrazin-3-yl)-2-fluoro-N-((1r,4r)-4-hydroxy-4-methylcyclohexyl)benzenesulfonamide] | < 100 | < 100 | < 100 | 
4 | Cc1ccc(S(=O)(=O)NCC2CCN(C(=O)C3CC3)CC2)cc1-c1cnc2c(N)nccn12 [Example 136, 3-(8-aminoimidazo[1,2-a]pyrazin-3-yl)-N-((1-(cyclopropanecarbonyl)piperidin-4-yl)methyl)-4-methylbenzenesulfonamide] | 100 to 500 |  | > 2000 | > 1000
5 | Cc1ccc(S(=O)(=O)NC23CC(N)(C2)C3)cc1-c1cnc2c(N)nc(C(F)(F)F)nn12 [Example 341, 3-(4-Amino-2-(trifluoromethyl)imidazo[1,2-f][1,2,4]triazin-7-yl)-N-(3-aminobicyclo[1.1.1]pentan-1-yl)-4-methylbenzenesulfonamide trifluoroacetate salt] | < 100 | 100 to 500 | 100 to 500 | 
6 | Cc1ccc(S(=O)(=O)NCCN2CCS(=O)(=O)CC2)cc1-c1cnc2c(N)ncnn12 [Example 129, 3-(4-aminoimidazo[2,1-f][1,2,4]triazin-7-yl)-N-(2-(1,1-dioxidothiomorpholino)ethyl)-4-methylbenzenesulfonamide] | < 100 |  | 100 to 500 | < 100
7 | Cc1ccc(S(=O)(=O)N2CCC(O)CC2)cc1-c1cnc2c(N)nccn12 [Example 51, 1-{[3-(8-Aminoimidazo[1,2-a]pyrazin-3-yl)-4-methylphenyl]sulfonyl}piperidin-4-ol] | < 100 |  | 500 to 2000 | > 1000
8 | Cc1nc(N)c2ncc(-c3ccc(F)c(S(=O)(=O)NC45CCC(C#N)(C4)C5)c3)n2n1 [Example 387, 5-(4-Amino-2-methylimidazo[1,2-f][1,2,4]triazin-7-yl)-N-(4-cyanobicyclo[2.1.1]hexan-1-yl)-2-fluorobenzenesulfonamide trifluoroacetate salt] | < 100 | < 100 | 100 to 500 | 
9 | Cc1ccc(S(=O)(=O)NC23CCC(C#N)(C2)C3)cc1-c1cnc2c(N)ncnn12 [Example 251, 3-(4-Aminoimidazo[2,1-f][1,2,4]triazin-7-yl)-N-(4-cyanobicyclo[2.1.1]hexan-1-yl)-4-methylbenzenesulfonamide trifluoroacetate salt] | < 100 |  | 100 to 500 | < 100
10 | Cc1ccc(S(=O)(=O)N[C@H]2CC[C@H](O)CC2)cc1-c1cn2cc(-c3ccc(C#N)cc3)nc(N)c2n1 [Example 24, 3-[8-Amino-6-(4-cyanophenyl)imidazo[1,2-a]pyrazin-2-yl]-N-(trans-4-hydroxycyclohexyl)-4-methylbenzenesulfonamide] | < 100 | 100 to 500 | < 100 | 
11 | COc1cc(C)c(-c2cnc3c(N)nccn23)cc1S(=O)(=O)N[C@H]1CC[C@H](O)CC1 [Example 83, 5-(8-aminoimidazo[1,2-a]pyrazin-3-yl)-N-(trans-4-hydroxycyclohexyl)-2-methoxy-4-methylbenzenesulfonamide] | 100 to 500 |  | < 100 | > 1000

Results, then the molecule that gave them:

Row | IC50 [1] [nM] | IC50 [2] [nM] | IC50 [3] [nM] | IC50 ([2]; Homo sapiens) [nM] | SMILES
12 | < 100 | < 100 | 100 to 500 |  | Cc1nc(N)c2ncc(-c3cc(S(=O)(=O)NCC(C)(C)O)c(Cl)cc3C)n2n1 [Example 403, 5-(4-amino-2-methylimidazo[1,2-f][1,2,4]triazin-7-yl)-2-chloro-N-(2-hydroxy-2-methylpropyl)-4-methylbenzenesulfonamide trifluoroacetate salt]
13 | < 100 |  | 100 to 500 | > 1000 | Cc1ccc(S(=O)(=O)N[C@H]2C[C@H](O)C2)cc1-c1cnc2c(N)nccn12 [Example 54, 3-(8-Aminoimidazo[1,2-a]pyrazin-3-yl)-N-(trans-3-hydroxycyclobutyl)-4-methylbenzenesulfonamide]
14 | < 100 | 100 to 500 | 100 to 500 |  | N#CC12CCC(NS(=O)(=O)c3cc(-c4cnc5c(N)ncnn45)ccc3F)(C1)C2 [Example 365, 5-(4-Aminoimidazo[1,2-f][1,2,4]triazin-7-yl)-N-(4-cyanobicyclo[2.1.1]hexan-1-yl)-2-fluorobenzenesulfonamide trifluoroacetate salt]
15 | < 100 |  | 100 to 500 | < 100 | COC(=O)C12CC(NS(=O)(=O)c3ccc(C)c(-c4cnc5c(N)nc(C(F)(F)F)cn45)c3)(C1)C2 [Example 277, Methyl 3-(3-(8-amino-6-(trifluoromethyl)imidazo[1,2-a]pyrazin-3-yl)-4-methylphenylsulfonamido)bicyclo[1.1.1]pentane-1-carboxylate trifluoroacetate salt]
16 | < 100 |  | 100 to 500 | < 100 | [2H]C([2H])([2H])c1ccc(S(=O)(=O)NC23CC(CC#N)(C2)C3)cc1-c1cnc2c(N)nc(C)cn12 [Example 378, trifluoroacetate salt]
17 | < 100 |  | < 100 | < 100 | Cc1ccc(S(=O)(=O)N[C@H]2CC[C@H](O)CC2)cc1-c1cnc2c(N)nc(-c3ccncc3F)cn12 [Example 81, 3-[8-Amino-6-(3-fluoropyridin-4-yl)imidazo[1,2-a]pyrazin-3-yl]-N-(trans-4-hydroxycyclohexyl)-4-methylbenzenesulfonamide]
18 | < 100 |  | 500 to 2000 | > 1000 | Cc1ccc(S(=O)(=O)NC23CC(c4nccn4C)(C2)C3)cc1-c1cnc2c(N)nc(C(F)(F)F)cn12 [Example 294, 3-(8-Amino-6-(trifluoromethyl)imidazo[1,2-a]pyrazin-3-yl)-4-methyl-N-(3-(1-methyl-1H-imidazol-2-yl)bicyclo[1.1.1]pentan-1-yl)benzenesulfonamide trifluoroacetate salt]
19 | < 100 |  | 100 to 500 | < 100 | Cc1cc(F)c(S(=O)(=O)N[C@H]2CC[C@H](CC#N)OC2)cc1-c1cnc2c(N)nc(C(F)(F)F)cn12 [Example 405, 5-(8-amino-6-(trifluoromethyl)imidazo[1,2-a]pyrazin-3-yl)-N-((3S,6R)-6-(cyanomethyl)tetrahydro-2H-pyran-3-yl)-2-fluoro-4-methylbenzenesulfonamide trifluoroacetate salt]
20 | < 100 |  | 500 to 2000 | 100 to 500 | Cc1ccc(S(=O)(=O)N2CCC[C@@H](N(C)C)C2)cc1-c1cnc2c(N)nc(C(F)(F)F)cn12 [Example 309, (R)-3-(5-((3-(dimethylamino)piperidin-1-yl)sulfonyl)-2-methylphenyl)-6-(trifluoromethyl)imidazo[1,2-a]pyrazin-8-amine]
